# Legend:
# Type in all cases: physicochemical
# [1] = Glass transition temperature of the compound
# [2] = Measurement of solubility in m-xylene; set-up: key: +: The compound dissolved.; −: The compound remained undissolved, giving a suspension, or separated out as crystals in 12 hours
# Text: <Measurement of Solubility in m-Xylene>
# The compound I synthesized in [Synthesis of Compound I] above and the comparative compounds X-A and X-B represented by the following structural formulae were examined for solubility in m-xylene.
# [3] = Dissolution of the compound in the composition for luminescent-layer formation / production of element; conditions: same procedure as Example 2, cyclohexylbenzene as solvent; production of an element was impossible
# Method: Next, a composition for luminescent-layer formation which included compound C3 represented by the following formula and the compound II obtained in Synthesis Example as charge-transporting compounds, phosphorescent metal complex D2, and cyclohexylbenzene as a solvent was prepared. The concentrations of the compound C3, the compound II, and the phosphorescent metal complex D2 in the composition were 1.25% by mass, 3.75% by mass, and 0.7% by mass, respectively.
# The same procedure as in Example 2 was conducted, except that the compound X-C was used in place of the compound II.
SMILES,Glass transition temperature [1] [°C],"Solubility in m-xylene, Concentration 1.0 mass % [2]","Solubility in m-xylene, Concentration 5.0 mass % [2]","Solubility in m-xylene, Concentration 10 mass % [2]",behaviour of the compound after dissolution in the composition for luminescent-layer formation [3]
c1ccc(-c2cccc(-c3ccc(N(c4ccc(-c5cccc(-c6cccc(-n7c8ccccc8c8ccccc87)c6)c5)cc4)c4ccc(-c5cccc(-n6c7ccccc7c7ccccc76)c5)cc4)cc3)c2)cc1 [Compound I],127,+,+,+,
c1ccc(-c2cccc(-c3ccc(N(c4ccc(-c5cccc(-n6c7ccccc7c7ccccc76)c5)cc4)c4ccc(-c5cccc(-n6c7ccccc7c7ccccc76)c5)cc4)cc3)c2)cc1 [X-B],120,−,−,−,
c1cc(-c2ccc(N(c3ccc(-c4cccc(-n5c6ccccc6c6ccccc65)c4)cc3)c3ccc(-c4cccc(-n5c6ccccc6c6ccccc65)c4)cc3)cc2)cc(-n2c3ccccc3c3ccccc32)c1 [X-A],159,+,−,−,
c1ccc(-c2ccc(-c3ccc(N(c4ccc(-c5cccc(-c6cccc7ccccc67)c5)cc4)c4ccc(-c5cccc(-n6c7ccccc7c7ccccc76)c5)cc4)cc3)cc2)cc1 [Compound X-C],,,,,crystallized after dissolved

# From patent publication US9985214B2, “Monoamine compound, charge transport material, composition for charge transport film, organic electroluminescent element, organic EL display, and organic EL lighting” (Mitsubishi Chemical Corporation, priority 2009, dated 2018)
